Here are results for 15 compounds from patent US12398107B2, “Fungicidal nitroanilino substituted pyrazoles” (FMC Corporation, priority 2018, dated 2025).

Common to all, as to type: in vivo
One assay relates to Botrytis cinerea. As to the kind of experiment: Test E: tomato Botrytis, preventive spray on tomato seedlings. To be noted: 100 = 100% disease control, 0 = no control. The method in brief:
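Preventive test: spore inoculation one day after run-off spraying of compound suspension (3% acetone, acetone/water 50/50, 250 ppm PEG400). Incubation 20 °C saturated humidity for 48 h, followed by 3 days at 24 °C growth chamber; disease control scored visually, 100 = full control.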

Assay [1] concerns Blumeria graminis f. sp. tritici. As to the kind of experiment: Test C: wheat powdery mildew, preventive spray on wheat seedlings. To be noted: rated after 8 days, 100 = 100% disease control, 0 = no control. The procedure, abridged:
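Wheat seedlings got a run-off spray of test suspension (ppm in acetone/water 50/50, 250 ppm PEG400, acetone 3% of volume), then spore-dust inoculation with wheat powdery mildew one day later. After 8 days' growth-chamber incubation at 20° C, disease control scored visually on a 0–100 scale versus untreated controls.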

The next assay deals with Septoria tritici. As to the kind of experiment: Test A: wheat leaf blotch, preventive spray on wheat seedlings. To be noted: 100 = 100% disease control, 0 = no control relative to controls. The method in brief: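 Preventive test: seedlings sprayed to run-off one day before Septoria tritici spore inoculation, with ppm doses in acetone/water containing 250 ppm PEG400. After 48 h at 24 °C in saturated air and 17 days at 20 °C, plants were scored 0–100 for disease control versus untreated controls.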

The subject of another assay is Alternaria solani. As to the kind of experiment: Test F: tomato early blight, preventive spray on tomato seedlings. To be noted: 100 = 100% disease control, 0 = no control. The method in brief:
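Preventive test: one day after seedlings were sprayed to run-off with ppm-level suspensions (acetone/water 50/50, 250 ppm PEG400), A. solani spore inoculation followed. Incubation was 48 h at 27° C in saturated air plus 3 days at 20° C; disease control was scored visually versus controls (100 = full control).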

Assay [2] concerns Puccinia recondita f. sp. tritici. The assay is described as follows: Test B: wheat leaf rust, preventive spray on wheat seedlings. To be noted: 100 = 100% disease control, 0 = no control relative to controls. The method in brief:
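Wheat seedlings got a run-off spray (ppm, acetone/water 50/50, 250 ppm PEG400) and one day later a spore inoculum. After 24 h at 20° C. in saturated air and 7 days at 20° C., disease was scored as % control relative to controls (100 = full control).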

Another assay concerns Phakopsora pachyrhizi. As to the kind of experiment: Test D: Asian soybean rust, preventive spray on soybean seedlings. To be noted: 100 = 100% disease control, 0 = no control. The procedure, abridged: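 Soybean seedlings sprayed to run-off with compound suspension (ppm, in 50/50 acetone/water with 250 ppm PEG400), inoculated next day with P. pachyrhizi spores, held 24 h saturated at 22°C then 8 days at 22°C. Visual rating 0-100% disease control relative to controls.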

Turning to `Cc1nn(C)c(Nc2ccc(F)cc2[N+](=O)[O-])c1-c1c(Cl)cccc1Cl` [Compound 54], in the assay on Botrytis cinerea (50 ppm), the “Test E disease control rating (tomato Botrytis)” value (“Test E disease control rating” below) is listed as 21%. Besides, the “Test C disease control rating (wheat powdery mildew)” value (“Test C disease control rating” below) in assay [1] (50 ppm) was 93%. Besides, the “Test A disease control rating (wheat leaf blotch)” value (shortened to “Test A disease control rating”) in the assay with Septoria tritici (50 ppm) turned out to be 100%. The “Test F disease control rating (tomato early blight)” value (“Test F disease control rating” below) with Alternaria solani (50 ppm) worked out at 0%. In addition, the “Test B disease control rating (wheat leaf rust)” value (“Test B disease control rating” below) in assay [2] (50 ppm) is 91%. For the same compound, the “Test D disease control rating (Asian soybean rust)” value (“Test D disease control rating” below) in the assay on Phakopsora pachyrhizi (50 ppm) worked out at 0%.

Turning to `Cc1nn(C)c(Nc2c(F)cc(F)cc2[N+](=O)[O-])c1-c1ccc(C#N)cc1Cl` [Compound 120], in the assay on Botrytis cinerea (50 ppm), the “Test E disease control rating” value is listed as 100%. Besides, the “Test C disease control rating” value in assay [1] (50 ppm) came to 89%. Also, the “Test A disease control rating” value in the assay on Septoria tritici (50 ppm) is reported as 100%. In addition, in the assay with Alternaria solani (50 ppm), the “Test F disease control rating” value was 99%. In assay [2] (50 ppm), the “Test B disease control rating” value was found to be 100%. Also, the “Test D disease control rating” value in the assay on Phakopsora pachyrhizi (50 ppm) was 44%.

Take `CCc1nn(C)c(Nc2ccc(OC)cc2[N+](=O)[O-])c1-c1ccc(F)cc1F` [Compound 45]: in the assay with Botrytis cinerea (50 ppm), the “Test E disease control rating” value is given as 99%. Further, in assay [1] (50 ppm), the “Test C disease control rating” value stood at 95%. The “Test A disease control rating” value in the assay on Septoria tritici (50 ppm) is 100%. Moreover, the “Test F disease control rating” value with Alternaria solani (50 ppm) is on record as 33%. Besides, the “Test B disease control rating” value in assay [2] (50 ppm) turned out to be 86%. In the assay on Phakopsora pachyrhizi (50 ppm), the “Test D disease control rating” value was 0%.

On to `Cc1nn(C)c(Nc2ccc(OCC#N)cc2[N+](=O)[O-])c1-c1ccc(F)cc1Cl` [Compound 29], for which the “Test E disease control rating” value in the assay with Botrytis cinerea (50 ppm) was 99%. Further, the “Test C disease control rating” value in assay [1] (50 ppm) was determined as 87%. Moreover, the “Test A disease control rating” value with Septoria tritici (50 ppm) turned out to be 97%. In the assay with Alternaria solani (50 ppm), the “Test F disease control rating” value stood at 26%. Also, the “Test B disease control rating” value in assay [2] (50 ppm) turned out to be 98%. In addition, the “Test D disease control rating” value in the assay on Phakopsora pachyrhizi (50 ppm) is on record as 81%.

As for `Cc1nn(C)c(Nc2c(F)cccc2[N+](=O)[O-])c1-c1c(F)cccc1F` [Compound 63], the “Test E disease control rating” value with Botrytis cinerea (50 ppm) came to 100%. Further, the “Test C disease control rating” value in assay [1] (50 ppm) is 86%. Besides, in the assay on Septoria tritici (50 ppm), the “Test A disease control rating” value is 100%. Moreover, the “Test F disease control rating” value in the assay with Alternaria solani (50 ppm) stood at 96%. Besides, in assay [2] (50 ppm), the “Test B disease control rating” value is recorded as 99%. Besides, in the assay with Phakopsora pachyrhizi (50 ppm), the “Test D disease control rating” value is 0%.

Consider `Cc1nn(C)c(Nc2c(F)cccc2[N+](=O)[O-])c1-c1c(F)cc(F)cc1Cl` [Compound 68, 4-(2-chloro-4,6-difluorophenyl)-N-(2-fluoro-6-nitrophenyl)-1,3-dimethyl-1H-pyrazol-5-amine], for which the pest or weed control at 10 ppm was found to be 100% with Botrytis cinerea (Botrytis cinerea, 10 ppm, read-out: Test E disease control rating (tomato Botrytis)); 96% in assay [1] (Blumeria graminis, 192 h, 10 ppm, read-out: Test C disease control rating (wheat powdery mildew)); 100% in the assay with Septoria tritici (Zymoseptoria tritici, 10 ppm, read-out: Test A disease control rating (wheat leaf blotch)); 98% with Alternaria solani (Alternaria solani, 10 ppm, read-out: Test F disease control rating (tomato early blight)); 100% in assay [2] (10 ppm, read-out: Test B disease control rating (wheat leaf rust)); 32% with Phakopsora pachyrhizi (Phakopsora pachyrhizi, 10 ppm, read-out: Test D disease control rating (Asian soybean rust)). Moreover, the pest or weed control at 50 ppm worked out at 100% in the assay with Botrytis cinerea (Botrytis cinerea, 50 ppm, read-out: Test E disease control rating (tomato Botrytis)); 100% in assay [1] (Blumeria graminis, 192 h, 50 ppm, read-out: Test C disease control rating (wheat powdery mildew)); 100% in the assay with Septoria tritici (Zymoseptoria tritici, 50 ppm, read-out: Test A disease control rating (wheat leaf blotch)); 99% with Alternaria solani (Alternaria solani, 50 ppm, read-out: Test F disease control rating (tomato early blight)); 100% in assay [2] (50 ppm, read-out: Test B disease control rating (wheat leaf rust)); 99% with Phakopsora pachyrhizi (Phakopsora pachyrhizi, 50 ppm, read-out: Test D disease control rating (Asian soybean rust)).

In the case of `Cc1ccc(Nc2c(-c3ccc(C#N)cc3Cl)c(C)nn2C)c([N+](=O)[O-])c1` [Compound 14], the “Test E disease control rating” value with Botrytis cinerea (50 ppm) is listed as 96%. Moreover, the “Test C disease control rating” value in assay [1] (50 ppm) turned out to be 83%. The “Test A disease control rating” value in the assay on Septoria tritici (50 ppm) is given as 100%. Moreover, the “Test F disease control rating” value in the assay on Alternaria solani (50 ppm) was determined as 83%. The “Test B disease control rating” value in assay [2] (50 ppm) worked out at 97%. For the same compound, in the assay on Phakopsora pachyrhizi (50 ppm), the “Test D disease control rating” value is recorded as 48%.

As to `Cc1nn(C)c(Nc2ccccc2[N+](=O)[O-])c1-c1c(F)cccc1Cl` [Compound 136], in the assay with Botrytis cinerea (50 ppm), the “Test E disease control rating” value amounted to 99%. The “Test C disease control rating” value in assay [1] (50 ppm) worked out at 88%. The “Test A disease control rating” value in the assay on Septoria tritici (50 ppm) is listed as 100%. Also, the “Test F disease control rating” value in the assay with Alternaria solani (50 ppm) amounted to 0%. Besides, in assay [2] (50 ppm), the “Test B disease control rating” value turned out to be 80%. For the same compound, in the assay with Phakopsora pachyrhizi (50 ppm), the “Test D disease control rating” value was 0%.

As for `Cc1cc(F)c(Nc2c(-c3ccc(Cl)cc3Cl)c(C)nn2C)c([N+](=O)[O-])c1` [Compound 143], the “Test E disease control rating” value with Botrytis cinerea (50 ppm) was determined as 99%. In assay [1] (50 ppm), the “Test C disease control rating” value was determined as 96%. For the same compound, in the assay with Septoria tritici (50 ppm), the “Test A disease control rating” value was 99%. Moreover, in the assay on Alternaria solani (50 ppm), the “Test F disease control rating” value turned out to be 100%. Besides, in assay [2] (50 ppm), the “Test B disease control rating” value amounted to 100%. For the same compound, the “Test D disease control rating” value in the assay with Phakopsora pachyrhizi (50 ppm) is listed as 87%.

On to `Cc1nn(C)c(Nc2c(Cl)cccc2[N+](=O)[O-])c1-c1c(F)cc(F)cc1Br` [Compound 163], for which the “Test E disease control rating” value with Botrytis cinerea (50 ppm) came to 88%. Moreover, the “Test C disease control rating” value in assay [1] (50 ppm) was 98%. Moreover, in the assay with Septoria tritici (50 ppm), the “Test A disease control rating” value is 99%. The “Test F disease control rating” value in the assay with Alternaria solani (50 ppm) came to 76%. Besides, the “Test B disease control rating” value in assay [2] (50 ppm) was found to be 100%. Also, the “Test D disease control rating” value in the assay on Phakopsora pachyrhizi (50 ppm) was 78%.

Regarding `CCc1nn(C)c(Nc2c(Cl)cc(Br)cc2[N+](=O)[O-])c1-c1ccc(F)cc1Cl` [Compound 128], in the assay on Botrytis cinerea (50 ppm), the “Test E disease control rating” value is 99%. In addition, the “Test C disease control rating” value in assay [1] (50 ppm) is listed as 96%. In addition, the “Test A disease control rating” value with Septoria tritici (50 ppm) is given as 100%. For the same compound, the “Test F disease control rating” value in the assay with Alternaria solani (50 ppm) amounted to 33%. The “Test B disease control rating” value in assay [2] (50 ppm) stood at 98%. For the same compound, the “Test D disease control rating” value with Phakopsora pachyrhizi (50 ppm) is recorded as 31%.

Take `Cc1nn(C)c(Nc2c([N+](=O)[O-])ccc(F)c2F)c1-c1ccc(F)cc1Cl` [Compound 7]: the “Test E disease control rating” value in the assay on Botrytis cinerea (50 ppm) stood at 99%. In addition, the “Test C disease control rating” value in assay [1] (50 ppm) is 94%. Also, the “Test A disease control rating” value with Septoria tritici (50 ppm) turned out to be 100%. Moreover, in the assay on Alternaria solani (50 ppm), the “Test F disease control rating” value stood at 89%. In addition, in assay [2] (50 ppm), the “Test B disease control rating” value is 99%. The “Test D disease control rating” value in the assay on Phakopsora pachyrhizi (50 ppm) is on record as 96%.

Consider `Cc1cc(Cl)c(Nc2c(-c3c(F)cccc3Cl)c(C)nn2C)c([N+](=O)[O-])c1` [Compound 24], for which the “Test E disease control rating” value with Botrytis cinerea (50 ppm) stood at 97%. The “Test C disease control rating” value in assay [1] (50 ppm) amounted to 0%. For the same compound, the “Test A disease control rating” value with Septoria tritici (50 ppm) was found to be 100%. For the same compound, in the assay with Alternaria solani (50 ppm), the “Test F disease control rating” value is on record as 0%. For the same compound, in assay [2] (50 ppm), the “Test B disease control rating” value was determined as 89%. Besides, the “Test D disease control rating” value in the assay with Phakopsora pachyrhizi (50 ppm) is on record as 0%.

As to `Cc1nn(C)c(Nc2c(F)cc(F)cc2[N+](=O)[O-])c1-c1c(F)cccc1F` [Compound 75], in the assay on Botrytis cinerea (50 ppm), the “Test E disease control rating” value is listed as 57%. The “Test C disease control rating” value in assay [1] (50 ppm) was 90%. The “Test A disease control rating” value in the assay with Septoria tritici (50 ppm) came out at 100%. For the same compound, in the assay on Alternaria solani (50 ppm), the “Test F disease control rating” value was 98%. In addition, the “Test B disease control rating” value in assay [2] (50 ppm) was determined as 99%. In addition, the “Test D disease control rating” value in the assay with Phakopsora pachyrhizi (50 ppm) is 0%.

In the case of `Cc1nn(C)c(Nc2c(Cl)cc(F)cc2[N+](=O)[O-])c1-c1c(F)cccc1Cl` [Compound 49], in the assay with Botrytis cinerea (50 ppm), the “Test E disease control rating” value turned out to be 94%. In addition, the “Test C disease control rating” value in assay [1] (50 ppm) was 95%. Further, the “Test A disease control rating” value in the assay on Septoria tritici (50 ppm) was determined as 100%. Besides, the “Test F disease control rating” value in the assay on Alternaria solani (50 ppm) worked out at 26%. Moreover, the “Test B disease control rating” value in assay [2] (50 ppm) is 100%. In addition, the “Test D disease control rating” value in the assay with Phakopsora pachyrhizi (50 ppm) stood at 25%.
